The source of these data is paper PMC6628624 (Toxins, 2019).

Like-named read-outs stand apart in the source and are kept apart here.

Series [1] is described as follows: in vitro. To be noted: human, Caco-2, Papp (apparent permeability coefficient). (Caco-2 cells form a polarised layer with tight junctions and transporters.)
The conditions of series [2]: in vivo.
In series [3] the test system is mice. To be noted: mouse, in vivo, cited from earlier work.
For series [4] the following is noted: rat, in vivo, sc; cited from earlier work.
Series [5] is described as follows: in vivo. The note with it: male, Landrace × Large White × Duroc, pig, 0.1 mg/kg.
Series [6] deals with Caco-2 cells. The note with it: human.
Series [7] has as its system rats. The note with it: rat, in vivo; cited from earlier work.
For series [8] the following is noted: pig, in vivo; cited from earlier work.
For series [9], the system named is Caco-2 cells. To be noted: cited from earlier work.
The conditions of series [10]: rat, in vivo; cited from earlier work.
For series [11] the following is noted: monkey, in vivo; cited from earlier work.
[12] abbreviates: male, Landrace × Large White × Duroc, swine, 0.1 mg/kg.
[13] abbreviates: male, Landrace × Large White × Duroc, swine, po, 0.1 mg/kg.

One may read the Papp as the rate of passage across a membrane or cell layer, normalised by area and donor concentration. Broadly, the AUC(0-inf) is the area under the concentration-time curve extrapolated to infinity. Low readings indicate less exposure, high ones more exposure. As a reminder, the AUC(0-t) is exposure summed from dosing to a finite time, without extrapolation to infinity. Low readings indicate less exposure, high ones more exposure. As a reminder, the MRT is a mean duration of stay, worked out from the concentration-time curve. What is called half-life is how long it takes for the measured level to halve. As a reminder, the Cmax is the peak of the concentration-time curve. As usually defined, the Tmax is the time at which the peak concentration occurs. Take `COc1cc(=O)oc(/C=C/C=C/C=C/C(C)=C/[C@]2(C)O[C@H](C)[C@](C)(O)[C@H]2O)c1C` [CTVD, Citreoviridin]: the Papp in [1] was 52.2 ± 28.3 ×10⁻⁶ cm/s. Besides, the adverse clinical signs entry in [2] is “None”. In series [2] (po, 0.1 mg/kg), the “plasma CTVD concentration until 3 h after PO” value is “almost no increase”. Besides, in series [2] (male, Landrace × Large White × Duroc, swine), the “time to eliminate CTVD in plasma” value was “more than 40 h”. In [2] (setting [12]), the “F (bioavailability calculated using mean AUC∞ after PO and IV)” value is reported as 116.4%; the “Ft (bioavailability calculated using mean AUCt after PO and IV)” value is 79.3%. In [2] (male, Landrace × Large White × Duroc, swine, iv, 0.1 mg/kg), the “Vd (apparent volume of distribution)” value is 1.5 ± 0.2 L. For the same compound, the “extrapolation estimate of AUC (from 48 h to infinity) relative to AUCt” value in series [2] (male, Landrace × Large White × Duroc, swine, po) is given as 68 % of AUCt. For the same compound, in series [2] (setting [13]), the “Kel (rate constant)” value is listed as 0.4 ± 0.2 ×10^−1 h^−1 and the “Vd/F (apparent volume of distribution)” value is recorded as 1.7 ± 0.3 L. Moreover, the “LD50 (lethal dose 50%)” value in series [3] (ip) is 7.5 mg/kg. Also, the “LD50 (lethal dose 50%)” value in series [3] (sc) was 3.6 to 11.8 mg/kg. In series [4], the “CTVD still detected in the liver after 52 h” value is on record as < 1 % of the total administered dose; the “persistence of CTVD in organs at 52 h” value was “remained in the liver, kidney, and heart”; the “time at which the concentration of CTVD was highest in the liver” value is 8 h. For the same compound, in [5] (iv), the AUC(0-inf) is 1510 ± 332 ng·h/mL, the AUC(0-t) was 1320 ± 224 ng·h/mL, the MRT is 14.6 ± 1.2 h and the half-life is 16.2 ± 4.3 h. Besides, in [5] (po), the AUC(0-inf) came to 1760 ± 814 ng·h/mL, the AUC(0-t) was 1050 ± 181 ng·h/mL, the concentration peaked (Cmax) at 38.2 ± 6.7 ng/mL and the MRT was found to be 19.6 ± 4 h. In addition, in series [5] (po), the Tmax turned out to be 15 ± 6 h and the half-life is 21.4 ± 12.7 h. The “Papp (apparent permeability coefficient)” value in [6] is 42.6 ± 17.7 ×10^−6 cm/s. In addition, the “outcome of chronic low-dose administration” value in series [7] is “rats died”.
On to `CC1=C[C@H]2O[C@@H]3[C@H](O)C[C@](C)([C@@]2(CO)[C@H](O)C1=O)[C@]31CO1` [deoxynivalenol], for which, in series [8], the bioavailability is on record as 48–109.8% and the elimination half-life is 7.2 to 15.2 h. The Papp in series [9] (Caco-2) was 0.19 ± 0.02 × 10^−6 cm/min.
On to aflatoxin B1, for which the elimination half-life in series [10] is recorded as 91.8 h.
As for `CCCC[C@@H](C)[C@@H](OC(=O)C[C@@H](CC(=O)O)C(=O)O)[C@H](C[C@@H](C)C[C@H](O)CCCC[C@@H](O)C[C@H](O)[C@H](C)N)OC(=O)C[C@@H](CC(=O)O)C(=O)O` [fumonisin B1], the elimination half-life in series [8] is 3.03 h.
Consider `C[C@H]1CCCC(=O)CCC/C=C/c2cc(O)cc(O)c2C(=O)O1` [zearalenone], for which, in series [8], the bioavailability was 80–85%. Besides, the Papp in series [9] (Caco-2) is 10.4 ± 4.7 × 10^−6 cm/s.
As for `C[C@@H]1Cc2c(Cl)cc(C(=O)N[C@@H](Cc3ccccc3)C(=O)O)c(O)c2C(=O)O1` [ochratoxin A], in series [8], the bioavailability is listed as 65.7% and the elimination half-life is recorded as 84.5 h. For the same compound, in series [11], the elimination half-life was 840 h.
Consider aflatoxin M1, for which the Papp in series [9] is given as 105.10 ± 7.98 ×10^−6 cm/s.
